Measurements taken from US9051277B2, “Phenyl(oxy/thio)alkanol derivatives” (Bayer Intellectual Property GmbH, priority 2009, dated 2015).

Columns and labels:
Fusarium proliferatum = test: Production of fumonisin FB1 by Fusarium proliferatum; format: cell-based; conditions: 120 h, read-out: inhibition of fumonisin FB1 production
Oryza sativa (rice) = test: Phytoregulatory pre-emergence action, ORYSA; format: in vivo; conditions: 80 g of a.i./ha, visual assessment after about 3 weeks
From the text: (§1) Seeds of monocotyledonous or dicotyledonous crop plants are placed in wood-fibre pots in sandy loam and covered with soil. The test compounds, formulated in the form of wettable powders (WP), are then, as an aqueous suspension with a water application rate of 600 l/ha (converted), with 0.2% of wetting agent added, applied at various dosages to the surface of the covering soil. After the treatment, the pots are placed in a greenhouse and kept under good growth conditions for the test plants. The visual assessment of the suppression of growth in the test plants is carried out after a trial period of about 3 weeks by comparison with untreated controls (phytoregulatory activity in percent: 100% activity=maximum inhibition of plant growth, 0% activity=plant growth like that of an untreated control.)

Aspergillus parasiticus = test: microbe, parasite or virus in culture; format: cell-based; conditions: 168 h, read-out: inhibition of aflatoxin production
[1] = tested on: Setaria viridis (green foxtail); test: Phytoregulatory post-emergence action, SETVI; format: in vivo; conditions: 80 g of a.i./ha, visual rating after about 3 weeks
Procedure: (§2) Seeds of monocotyledonous and dicotyledonous crop plants are placed in sandy loam in wood-fibre pots, covered with soil and cultivated in a greenhouse under good growth conditions. 2 to 3 weeks after sowing, the test plants are treated at the one-leaf stage. The test compounds, formulated as wettable powders (WP), are, with a water application rate of 600 l/ha (converted), with 0.2% of wetting agent added, sprayed at various dosages onto the green parts of the plants. After the test plants have been kept in the greenhouse under optimum growth conditions for about 3 weeks, the activity of the preparations is rated visually in comparison to untreated controls (phytoregulatory activity in percent: 100% activity=maximum inhibition of plant growth, 0% activity=plant growth like that of an untreated control.)

Pyrenophora teres = Pyrenophora teres test (barley)/protective; format: in vivo; conditions: protective, evaluation 8 days after inoculation
Procedure: [table] To produce a suitable preparation of active compound, 1 part by weight of active compound is mixed with the stated amounts of solvent and emulsifier, and the concentrate is diluted with water to the desired concentration. To test for protective activity, young plants are sprayed with the preparation of active compound at the stated application rate. After the spray coating has dried on, the plants are sprayed with a spore suspension of Pyrenophora teres. The plants remain in an incubation cabin at 20° C. and a relative atmospheric humidity of 100% for 48 hours.

Brassica napus (rape) [2] = test: Phytoregulatory pre-emergence action, BRSNW; format: in vivo; conditions: 80 g of a.i./ha, visual assessment after about 3 weeks
From the text: as §1

Alternaria solani = test: Alternaria test (tomato)/protective; format: in vivo; conditions: protective, 100 ppm, evaluation 3 days after inoculation
Procedure: [table] To produce a suitable preparation of active compound, 1 part by weight of active compound is mixed with the stated amounts of solvent and emulsifier, and the concentrate is diluted with water to the desired concentration. To test for protective activity, young plants are sprayed with the preparation of active compound at the stated application rate. After the spray coating has dried on, the plants are inoculated with an aqueous spore suspension of Alternaria solani. The plants are then placed in an incubation cabin at about 20° C. and 100% relative atmospheric humidity.

[3] = tested on: Triticum aestivum (common wheat); test: Phytoregulatory post-emergence action, TRZAS; format: in vivo; conditions: 80 g of a.i./ha, visual rating after about 3 weeks
Procedure: as §2

Brassica napus (rape) [4] = test: Phytoregulatory post-emergence action, BRSNW; format: in vivo; conditions: 80 g of a.i./ha, visual rating after about 3 weeks
Procedure: as §2

Fusarium graminearum = test: microbe, parasite or virus in culture; format: cell-based; conditions: 168 h, read-out: inhibition of DON/AcDON production

| SMILES | inhibition at 50 µM (Fusarium proliferatum) [%] | Inhibition of the growth of useful or harmful plants in % ORYSA (Oryza sativa (rice)) [%] | inhibition at 50 µM (Aspergillus parasiticus) [%] | Inhibition of the growth of useful or harmful plants in % SETVI [1] [%] | Efficacy in % (Pyrenophora teres; application rate 500 ppm) [%] | Inhibition of the growth of useful or harmful plants in % BRSNW (Brassica napus (rape) [2]) [%] | Efficacy in % (Alternaria solani) [%] | Inhibition of the growth of useful or harmful plants in % TRZAS [3] [%] | Inhibition of the growth of useful or harmful plants in % BRSNW (Brassica napus (rape) [4]) [%] | inhibition at 50 µM (Fusarium graminearum) [%] | Efficacy in % (Pyrenophora teres; application rate 1000 ppm) [%] |
| --- | --- | --- | --- | --- | --- | --- | --- | --- | --- | --- | --- |
| CC(C)(C)C(O)(CSc1ccc(Br)cc1)c1cncnc1 (stereo not shown) [Compound 13] | > 80 |  |  |  |  |  |  |  |  |  |  |
| CC(C)(C)C(O)(COc1ccc(Br)cc1)c1cncnc1 (stereo not shown) [Compound 11] | > 80 | 60 | > 80 | 70 | 100 | 80 | 99 | 70 | 60 | > 80 |  |
| CC(C)C(O)(COc1ccc(Br)cc1)c1cncnc1 (stereo not shown) [Compound 21] | > 80 |  |  |  |  |  |  |  |  | > 80 |  |
| CC(C)(C)C(O)(CSc1ccc(I)cc1)Cn1cncn1 (stereo not shown) [Compound 3] | > 80 |  |  |  |  |  |  |  |  | > 80 |  |
| CC(C)(C)C(O)(COc1ccc(Cl)cc1)Cn1cncn1 (stereo not shown) [EP-A 0 040 345, Example I-1, reference compound] |  |  |  |  |  |  | 45 |  |  |  | 57 |
| CC(C)(C)C(O)(COc1ccc(Cl)cc1)c1cncnc1 (stereo not shown) [EP-A 0 028 755, Example 1, reference compound] |  | 40 |  | 50 | 93 | 70 | 75 | 50 | 60 |  |  |
| CC(C)(C)C(O)(COc1ccc(I)cc1)Cn1cncn1 (stereo not shown) [Compound 1] | > 80 |  |  |  |  |  | 94 |  |  | > 80 | 86 |
